Inhibition data for 10 molecules are collected here from ChEMBL document CHEMBL5442219.

The inhibition is the drop in the measured response relative to a control, in per cent.

Conditions in all cases: Compound concentration 10 µM
Experiment [1] concerns the target Translocator protein (Homo sapiens) (UniProt P30536).
Description: PDSP Primary Binding target: TSPO - Compounds are tested at 10 uM concentration, plate are incubated at room temperature in the dark for 90 minutes. Reaction are stopped by vacuum filtration onto 0.3% polyethyleneimine soaked filter mats using Filtermate harvester. Scintilation cocktail is then melted onto microwave-dried filters on a hot plate and the radio activity is counted in Microbia counter.
In experiment [2] the target is Sodium-dependent noradrenaline transporter (Homo sapiens) (UniProt P23975).
Description: PDSP Primary Binding target: SLC6A2 - Compounds are tested at 10 uM concentration, plate are incubated at room temperature in the dark for 90 minutes. Reaction are stopped by vacuum filtration onto 0.3% polyethyleneimine soaked filter mats using Filtermate harvester. Scintilation cocktail is then melted onto microwave-dried filters on a hot plate and the radio activity is counted in Microbia counter.
Experiment [3] deals with T1, Muscarinic acetylcholine receptor M4 (Homo sapiens) (UniProt P08173).
T1 sequence (whole entry): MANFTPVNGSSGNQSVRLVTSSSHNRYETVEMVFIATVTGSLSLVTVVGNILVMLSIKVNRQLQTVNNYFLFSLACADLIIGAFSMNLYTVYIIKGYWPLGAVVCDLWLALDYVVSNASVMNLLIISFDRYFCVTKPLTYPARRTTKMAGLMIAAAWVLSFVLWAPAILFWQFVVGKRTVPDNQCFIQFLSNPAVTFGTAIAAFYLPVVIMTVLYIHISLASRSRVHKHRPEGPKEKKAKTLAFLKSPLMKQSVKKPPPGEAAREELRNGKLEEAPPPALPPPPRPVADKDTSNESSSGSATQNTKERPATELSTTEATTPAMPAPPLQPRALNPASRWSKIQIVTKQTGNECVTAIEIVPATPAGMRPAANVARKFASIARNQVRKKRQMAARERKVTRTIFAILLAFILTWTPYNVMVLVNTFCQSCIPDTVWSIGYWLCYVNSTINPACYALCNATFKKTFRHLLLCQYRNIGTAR
Description: PDSP Primary Binding target: CHRM4 - Compounds are tested at 10 uM concentration, plate are incubated at room temperature in the dark for 90 minutes. Reaction are stopped by vacuum filtration onto 0.3% polyethyleneimine soaked filter mats using Filtermate harvester. Scintilation cocktail is then melted onto microwave-dried filters on a hot plate and the radio activity is counted in Microbia counter.

Experiment [4] concerns the target T2, Muscarinic acetylcholine receptor M2 (Homo sapiens) (UniProt P08172).
T2 sequence (whole entry): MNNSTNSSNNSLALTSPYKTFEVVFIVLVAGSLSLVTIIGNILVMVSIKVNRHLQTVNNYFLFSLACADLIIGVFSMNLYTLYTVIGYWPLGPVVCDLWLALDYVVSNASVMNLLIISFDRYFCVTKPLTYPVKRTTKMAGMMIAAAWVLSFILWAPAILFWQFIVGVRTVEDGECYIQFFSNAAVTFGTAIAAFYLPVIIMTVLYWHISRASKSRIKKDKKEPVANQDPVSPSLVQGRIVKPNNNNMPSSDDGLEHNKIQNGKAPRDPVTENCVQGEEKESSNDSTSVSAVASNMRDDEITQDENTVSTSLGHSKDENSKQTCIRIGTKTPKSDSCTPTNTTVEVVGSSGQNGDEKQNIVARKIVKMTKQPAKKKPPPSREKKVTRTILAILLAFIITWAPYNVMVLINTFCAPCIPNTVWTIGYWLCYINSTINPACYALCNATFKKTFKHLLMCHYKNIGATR
Description: PDSP Primary Binding target: CHRM2 - Compounds are tested at 10 uM concentration, plate are incubated at room temperature in the dark for 90 minutes. Reaction are stopped by vacuum filtration onto 0.3% polyethyleneimine soaked filter mats using Filtermate harvester. Scintilation cocktail is then melted onto microwave-dried filters on a hot plate and the radio activity is counted in Microbia counter.

The target in experiment [5] is Histamine H3 receptor (Homo sapiens) (UniProt Q9Y5N1).
Sequence of Histamine H3 receptor (Homo sapiens) (Q9Y5N1 whole entry): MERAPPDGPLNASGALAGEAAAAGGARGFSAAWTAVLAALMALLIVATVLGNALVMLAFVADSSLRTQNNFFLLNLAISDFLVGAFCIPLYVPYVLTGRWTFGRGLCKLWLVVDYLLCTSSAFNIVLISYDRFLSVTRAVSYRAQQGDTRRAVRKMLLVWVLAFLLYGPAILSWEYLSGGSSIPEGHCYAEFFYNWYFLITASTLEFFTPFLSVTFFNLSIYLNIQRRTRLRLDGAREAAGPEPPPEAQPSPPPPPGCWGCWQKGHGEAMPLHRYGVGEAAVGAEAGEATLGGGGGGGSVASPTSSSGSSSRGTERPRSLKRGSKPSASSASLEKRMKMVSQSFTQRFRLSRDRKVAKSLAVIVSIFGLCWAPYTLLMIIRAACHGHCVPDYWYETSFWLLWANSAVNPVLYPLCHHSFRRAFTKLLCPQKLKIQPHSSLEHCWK
Description: PDSP Primary Binding target: HRH3 - Compounds are tested at 10 uM concentration, plate are incubated at room temperature in the dark for 90 minutes. Reaction are stopped by vacuum filtration onto 0.3% polyethyleneimine soaked filter mats using Filtermate harvester. Scintilation cocktail is then melted onto microwave-dried filters on a hot plate and the radio activity is counted in Microbia counter.
For experiment [6], the target named is T3, Alpha-2B adrenergic receptor (Homo sapiens) (UniProt P18089).
T3 sequence (whole entry): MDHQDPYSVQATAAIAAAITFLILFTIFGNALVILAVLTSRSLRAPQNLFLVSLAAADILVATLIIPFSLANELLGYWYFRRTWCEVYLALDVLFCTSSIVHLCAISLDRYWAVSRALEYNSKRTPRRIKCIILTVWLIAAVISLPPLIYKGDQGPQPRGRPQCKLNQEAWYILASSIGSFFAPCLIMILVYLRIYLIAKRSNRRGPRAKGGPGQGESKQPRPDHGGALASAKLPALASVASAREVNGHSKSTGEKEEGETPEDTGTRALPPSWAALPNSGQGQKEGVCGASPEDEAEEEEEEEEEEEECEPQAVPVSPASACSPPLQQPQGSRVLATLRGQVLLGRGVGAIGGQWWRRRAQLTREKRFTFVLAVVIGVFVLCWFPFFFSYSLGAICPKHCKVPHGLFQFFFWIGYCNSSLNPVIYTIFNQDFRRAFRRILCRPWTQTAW
Description: PDSP Primary Binding target: ADRA2B - Compounds are tested at 10 uM concentration, plate are incubated at room temperature in the dark for 90 minutes. Reaction are stopped by vacuum filtration onto 0.3% polyethyleneimine soaked filter mats using Filtermate harvester. Scintilation cocktail is then melted onto microwave-dried filters on a hot plate and the radio activity is counted in Microbia counter.

Experiment [7] has as its target Sigma non-opioid intracellular receptor 1 (Homo sapiens) (UniProt Q99720).
Description: PDSP Primary Binding target: SIGMAR1 - Compounds are tested at 10 uM concentration, plate are incubated at room temperature in the dark for 90 minutes. Reaction are stopped by vacuum filtration onto 0.3% polyethyleneimine soaked filter mats using Filtermate harvester. Scintilation cocktail is then melted onto microwave-dried filters on a hot plate and the radio activity is counted in Microbia counter.
Experiment [8] concerns the target Beta-1 adrenergic receptor (Homo sapiens) (UniProt P08588).
Description: PDSP Primary Binding target: ADRB1 - Compounds are tested at 10 uM concentration, plate are incubated at room temperature in the dark for 90 minutes. Reaction are stopped by vacuum filtration onto 0.3% polyethyleneimine soaked filter mats using Filtermate harvester. Scintilation cocktail is then melted onto microwave-dried filters on a hot plate and the radio activity is counted in Microbia counter.
Experiment [9] deals with T4, Alpha-2C adrenergic receptor (Homo sapiens) (UniProt P18825).
T4 sequence (whole entry): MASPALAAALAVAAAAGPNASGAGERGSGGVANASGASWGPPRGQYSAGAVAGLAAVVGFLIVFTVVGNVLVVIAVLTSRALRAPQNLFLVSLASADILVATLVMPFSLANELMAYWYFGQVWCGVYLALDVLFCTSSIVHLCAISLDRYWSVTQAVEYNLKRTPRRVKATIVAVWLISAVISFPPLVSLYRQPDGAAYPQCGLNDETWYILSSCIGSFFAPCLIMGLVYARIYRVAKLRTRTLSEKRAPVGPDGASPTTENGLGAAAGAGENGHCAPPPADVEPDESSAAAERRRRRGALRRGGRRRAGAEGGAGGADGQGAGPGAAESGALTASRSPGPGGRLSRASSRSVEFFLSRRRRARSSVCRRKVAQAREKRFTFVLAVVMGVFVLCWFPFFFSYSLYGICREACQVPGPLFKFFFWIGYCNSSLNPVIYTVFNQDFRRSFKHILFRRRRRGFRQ
Description: PDSP Primary Binding target: ADRA2C - Compounds are tested at 10 uM concentration, plate are incubated at room temperature in the dark for 90 minutes. Reaction are stopped by vacuum filtration onto 0.3% polyethyleneimine soaked filter mats using Filtermate harvester. Scintilation cocktail is then melted onto microwave-dried filters on a hot plate and the radio activity is counted in Microbia counter.

The target in experiment [10] is T5, Muscarinic acetylcholine receptor M5 (Homo sapiens) (UniProt P08912).
T5 sequence (whole entry): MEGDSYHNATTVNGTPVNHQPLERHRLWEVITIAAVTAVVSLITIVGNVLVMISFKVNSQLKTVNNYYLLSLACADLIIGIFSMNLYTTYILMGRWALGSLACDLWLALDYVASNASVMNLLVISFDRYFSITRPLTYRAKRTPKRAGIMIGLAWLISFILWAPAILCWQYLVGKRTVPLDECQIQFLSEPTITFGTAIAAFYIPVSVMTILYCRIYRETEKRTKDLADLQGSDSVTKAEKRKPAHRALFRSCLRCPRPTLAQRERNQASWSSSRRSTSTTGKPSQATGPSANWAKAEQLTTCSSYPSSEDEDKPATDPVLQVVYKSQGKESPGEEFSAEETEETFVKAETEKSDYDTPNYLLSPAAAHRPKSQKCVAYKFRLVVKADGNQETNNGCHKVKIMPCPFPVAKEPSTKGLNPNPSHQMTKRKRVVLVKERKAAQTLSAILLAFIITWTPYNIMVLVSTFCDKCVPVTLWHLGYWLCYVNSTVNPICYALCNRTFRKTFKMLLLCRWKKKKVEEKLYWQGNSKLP
Description: PDSP Primary Binding target: CHRM5 - Compounds are tested at 10 uM concentration, plate are incubated at room temperature in the dark for 90 minutes. Reaction are stopped by vacuum filtration onto 0.3% polyethyleneimine soaked filter mats using Filtermate harvester. Scintilation cocktail is then melted onto microwave-dried filters on a hot plate and the radio activity is counted in Microbia counter.

Experiment [11] deals with Sodium-dependent serotonin transporter (Homo sapiens) (UniProt P31645).
Sequence of Sodium-dependent serotonin transporter (Homo sapiens) (P31645 whole entry, looked up): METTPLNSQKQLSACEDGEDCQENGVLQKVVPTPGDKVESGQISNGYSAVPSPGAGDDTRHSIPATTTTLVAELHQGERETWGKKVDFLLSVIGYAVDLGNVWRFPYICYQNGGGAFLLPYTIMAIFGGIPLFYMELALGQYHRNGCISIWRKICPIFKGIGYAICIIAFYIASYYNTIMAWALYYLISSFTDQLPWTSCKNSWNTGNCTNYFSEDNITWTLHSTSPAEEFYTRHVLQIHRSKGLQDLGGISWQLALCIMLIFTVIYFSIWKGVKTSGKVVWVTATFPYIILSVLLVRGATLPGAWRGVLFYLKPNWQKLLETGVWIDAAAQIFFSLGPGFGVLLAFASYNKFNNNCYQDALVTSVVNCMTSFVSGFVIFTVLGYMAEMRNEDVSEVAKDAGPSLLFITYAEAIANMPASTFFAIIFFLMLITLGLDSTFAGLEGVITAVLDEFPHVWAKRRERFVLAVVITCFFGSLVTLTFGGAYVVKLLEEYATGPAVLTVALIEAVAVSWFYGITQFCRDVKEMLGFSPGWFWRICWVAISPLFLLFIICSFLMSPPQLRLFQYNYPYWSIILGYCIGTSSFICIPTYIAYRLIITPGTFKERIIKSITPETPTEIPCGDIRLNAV
Description: PDSP Primary Binding target: SLC6A4 - Compounds are tested at 10 uM concentration, plate are incubated at room temperature in the dark for 90 minutes. Reaction are stopped by vacuum filtration onto 0.3% polyethyleneimine soaked filter mats using Filtermate harvester. Scintilation cocktail is then melted onto microwave-dried filters on a hot plate and the radio activity is counted in Microbia counter.
Experiment [12] addresses 5-hydroxytryptamine receptor 1E (Homo sapiens) (UniProt P28566).
Description: PDSP Primary Binding target: HTR1E - Compounds are tested at 10 uM concentration, plate are incubated at room temperature in the dark for 90 minutes. Reaction are stopped by vacuum filtration onto 0.3% polyethyleneimine soaked filter mats using Filtermate harvester. Scintilation cocktail is then melted onto microwave-dried filters on a hot plate and the radio activity is counted in Microbia counter.
The target in experiment [13] is 5-hydroxytryptamine receptor 6 (Homo sapiens) (UniProt P50406).
Sequence of 5-hydroxytryptamine receptor 6 (Homo sapiens) (P50406 whole entry): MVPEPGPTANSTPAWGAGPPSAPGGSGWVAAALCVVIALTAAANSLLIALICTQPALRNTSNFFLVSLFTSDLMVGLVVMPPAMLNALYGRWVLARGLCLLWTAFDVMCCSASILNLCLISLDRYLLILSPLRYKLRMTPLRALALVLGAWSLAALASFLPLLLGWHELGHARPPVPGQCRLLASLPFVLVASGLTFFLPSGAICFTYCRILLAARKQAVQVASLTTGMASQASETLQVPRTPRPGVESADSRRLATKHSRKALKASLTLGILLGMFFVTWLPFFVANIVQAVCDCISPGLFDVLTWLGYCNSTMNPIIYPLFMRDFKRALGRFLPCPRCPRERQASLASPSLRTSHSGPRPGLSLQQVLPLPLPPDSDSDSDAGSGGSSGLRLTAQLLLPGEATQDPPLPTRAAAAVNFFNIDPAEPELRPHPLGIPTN
Description: PDSP Primary Binding target: HTR6 - Compounds are tested at 10 uM concentration, plate are incubated at room temperature in the dark for 90 minutes. Reaction are stopped by vacuum filtration onto 0.3% polyethyleneimine soaked filter mats using Filtermate harvester. Scintilation cocktail is then melted onto microwave-dried filters on a hot plate and the radio activity is counted in Microbia counter.
The target in experiment [14] is 5-hydroxytryptamine receptor 5A (Homo sapiens) (UniProt P47898).
Sequence of 5-hydroxytryptamine receptor 5A (Homo sapiens) (P47898 whole entry): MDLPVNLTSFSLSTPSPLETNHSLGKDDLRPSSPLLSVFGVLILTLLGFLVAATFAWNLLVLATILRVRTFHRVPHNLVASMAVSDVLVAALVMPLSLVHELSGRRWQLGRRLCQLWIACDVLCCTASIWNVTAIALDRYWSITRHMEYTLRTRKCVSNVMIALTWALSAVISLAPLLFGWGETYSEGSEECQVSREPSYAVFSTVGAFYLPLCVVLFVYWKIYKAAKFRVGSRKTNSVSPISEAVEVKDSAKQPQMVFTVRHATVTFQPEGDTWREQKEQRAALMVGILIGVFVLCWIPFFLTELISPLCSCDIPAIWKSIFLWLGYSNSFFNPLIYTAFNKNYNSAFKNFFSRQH
Description: PDSP Primary Binding target: HTR5A - Compounds are tested at 10 uM concentration, plate are incubated at room temperature in the dark for 90 minutes. Reaction are stopped by vacuum filtration onto 0.3% polyethyleneimine soaked filter mats using Filtermate harvester. Scintilation cocktail is then melted onto microwave-dried filters on a hot plate and the radio activity is counted in Microbia counter.

Sequence of Translocator protein (Homo sapiens) (P30536 whole entry): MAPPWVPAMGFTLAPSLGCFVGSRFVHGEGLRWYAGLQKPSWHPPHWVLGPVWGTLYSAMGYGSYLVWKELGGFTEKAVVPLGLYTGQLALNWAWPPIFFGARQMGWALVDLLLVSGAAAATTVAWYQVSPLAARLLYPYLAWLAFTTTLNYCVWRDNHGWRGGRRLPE
Sequence of Beta-1 adrenergic receptor (Homo sapiens) (P08588 whole entry, looked up): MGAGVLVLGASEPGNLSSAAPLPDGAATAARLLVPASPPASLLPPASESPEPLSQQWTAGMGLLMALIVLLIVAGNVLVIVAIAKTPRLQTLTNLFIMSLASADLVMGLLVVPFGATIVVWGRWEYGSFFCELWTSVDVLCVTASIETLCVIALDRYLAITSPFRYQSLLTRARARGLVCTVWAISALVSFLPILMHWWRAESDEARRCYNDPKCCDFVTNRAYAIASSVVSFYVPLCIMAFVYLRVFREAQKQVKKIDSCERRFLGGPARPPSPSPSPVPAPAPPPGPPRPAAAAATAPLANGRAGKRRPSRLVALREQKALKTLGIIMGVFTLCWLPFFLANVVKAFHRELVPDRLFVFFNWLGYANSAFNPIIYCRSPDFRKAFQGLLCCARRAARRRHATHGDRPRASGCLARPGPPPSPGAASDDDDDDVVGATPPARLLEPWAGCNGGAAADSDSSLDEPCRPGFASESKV
Sequence of Sigma non-opioid intracellular receptor 1 (Homo sapiens) (Q99720 whole entry): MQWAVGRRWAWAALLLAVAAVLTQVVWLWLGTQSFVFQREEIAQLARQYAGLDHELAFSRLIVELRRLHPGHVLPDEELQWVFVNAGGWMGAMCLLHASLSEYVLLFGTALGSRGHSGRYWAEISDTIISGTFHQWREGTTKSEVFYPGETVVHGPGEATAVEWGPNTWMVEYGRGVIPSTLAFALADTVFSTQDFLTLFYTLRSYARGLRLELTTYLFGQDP
Sequence of Sodium-dependent noradrenaline transporter (Homo sapiens) (P23975 whole entry): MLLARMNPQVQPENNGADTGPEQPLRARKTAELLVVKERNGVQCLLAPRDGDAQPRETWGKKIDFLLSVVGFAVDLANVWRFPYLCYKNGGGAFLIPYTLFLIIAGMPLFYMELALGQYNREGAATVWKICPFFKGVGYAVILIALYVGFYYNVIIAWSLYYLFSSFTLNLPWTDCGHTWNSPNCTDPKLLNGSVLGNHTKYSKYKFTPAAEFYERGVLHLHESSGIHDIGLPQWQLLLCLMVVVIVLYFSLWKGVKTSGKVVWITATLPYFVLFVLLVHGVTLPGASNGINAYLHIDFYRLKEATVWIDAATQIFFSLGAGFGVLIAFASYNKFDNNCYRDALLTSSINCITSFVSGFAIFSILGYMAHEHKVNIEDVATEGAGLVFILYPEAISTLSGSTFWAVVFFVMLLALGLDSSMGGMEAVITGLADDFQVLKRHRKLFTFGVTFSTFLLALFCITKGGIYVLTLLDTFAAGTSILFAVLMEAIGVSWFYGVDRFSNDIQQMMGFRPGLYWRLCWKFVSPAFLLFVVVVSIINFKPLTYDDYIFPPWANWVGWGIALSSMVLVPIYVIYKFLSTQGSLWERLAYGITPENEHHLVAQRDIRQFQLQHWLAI
Sequence of 5-hydroxytryptamine receptor 1E (Homo sapiens) (P28566 whole entry): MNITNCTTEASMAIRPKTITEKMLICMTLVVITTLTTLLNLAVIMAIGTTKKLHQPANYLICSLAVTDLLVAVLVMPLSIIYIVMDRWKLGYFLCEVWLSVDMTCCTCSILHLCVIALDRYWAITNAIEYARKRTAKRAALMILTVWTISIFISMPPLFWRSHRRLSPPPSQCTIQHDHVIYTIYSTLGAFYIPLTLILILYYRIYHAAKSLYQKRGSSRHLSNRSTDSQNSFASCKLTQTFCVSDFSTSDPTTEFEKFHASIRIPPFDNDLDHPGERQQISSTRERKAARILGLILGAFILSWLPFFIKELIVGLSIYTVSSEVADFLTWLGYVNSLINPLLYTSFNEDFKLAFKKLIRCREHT

Take `Cc1ccc(O)c([C@H](CCN(C(C)C)C(C)C)c2ccccc2)c1`: the inhibition was 13.8% in experiment [1]; 29.7% in [2]; 0.61% in experiment [3]; 97.6% in experiment [4]; 4.65% in experiment [5]; 36.7% in [6]. Moreover, the inhibition in experiment [7] was 90.9%; in experiment [8], -3.65%; in experiment [9], 14.9%; in experiment [10], 0%; in experiment [11], 20.8%.
Turning to `N#Cc1ccc(NC(=O)Nc2ccccc2Br)c2nn[nH]c12`, the inhibition in experiment [1] is 53.9%; in experiment [2], 35.6%; in [3] it was 33.1%; in [4], 29.7%; in [5], 3.06%; in experiment [6], -2.75%. Further, the inhibition in experiment [7] was 9.64%; in experiment [12], 4.87%; in experiment [8], 26.6%; in experiment [9], 4.08%; in [10], 6.48%; in experiment [11], 26.5%.
`FC(F)(F)c1c(N2CCC(c3ccccc3)CC2)ccn2c(CC3CC3)nnc12`: the inhibition is 36.9% in experiment [1]; 31.6% in [2]; 7.85% in [4]; 64.7% in experiment [7]; 21.9% in experiment [12]; 22.1% in experiment [8]. The inhibition in [9] is 1.28%; in experiment [13], -9.81%; in experiment [10] it was -6.28%; in experiment [11], 42.4%.
Consider `O=C(O)C1CN(Cc2ccc(OCc3ccc(Cl)c(Cl)c3)cc2)C1`, for which the inhibition was 3.35% in experiment [1]; 29.6% in experiment [3]; 23.4% in experiment [14]; -5.07% in [4]; -4.42% in experiment [5]; 35.4% in experiment [6]. For the same molecule, the inhibition in experiment [7] was 76.9%; in experiment [12], -4%; in [8], -7.03%; in experiment [9], 10%; in experiment [13], 5.45%; in [10], -2.07%. Moreover, the inhibition in [11] was -9.84%.
For `c1cc(CN2CCCNCCNCCCNCC2)ccc1CN1CCCNCCNCCCNCC1`, the inhibition is 7.76% in experiment [1]; 33.4% in [2]; 41.7% in experiment [3]; 67.7% in [4]; 80.5% in experiment [5]; -9.59% in experiment [6]. Moreover, the inhibition in [7] is 15.3%; in [12], 33.9%; in experiment [8], 34.9%; in experiment [9], 66.3%; in experiment [10], 1.58%; in experiment [11] it was 22.7%.
Turning to `CO[C@@H]1COCC[C@@H]1N[C@@H]1CC[C@@](C(=O)N2CCc3ncc(C(F)(F)F)cc3C2)(C(C)C)C1`, the inhibition was 11.4% in experiment [1]; 8.25% in experiment [4]; 4.46% in experiment [5]; 81.8% in [7]; 9.5% in experiment [12]; 28.2% in experiment [8]. Besides, the inhibition in experiment [9] is 3.2%; in experiment [13] it was 3.16%; in experiment [10], -4.29%; in experiment [11], -2.04%.
Consider `O=C(O)C1CN(Cc2ccc(-c3nc4cc(Cc5ccccc5F)ccc4s3)c(F)c2)C1`, for which the inhibition in experiment [1] is 22.3%; in [2], 20.8%; in [14], 7.19%; in [4], -8.59%; in [5], 1.61%; in experiment [7] it was 5.12%. For the same molecule, the inhibition in [12] was 31.1%; in experiment [8], 22.9%; in experiment [9], 20.6%; in experiment [13], 8.45%; in experiment [11], -1.28%.
For the molecule `Cc1nc(-c2ccc(C(F)(F)F)cc2)sc1COc1ccc([C@H](CC(=O)O)c2ccon2)cc1`, the inhibition in experiment [1] was 11.6%; in [2], 14.3%; in experiment [3], 4.4%; in [14], 26.8%; in experiment [4], 25.2%; in [5] it was 9.74%. The inhibition is -6.48% in experiment [6]; 37.7% in experiment [7]; 39.7% in [12]; 24.6% in experiment [8]; 2.28% in experiment [9]; 20.3% in experiment [13]. The inhibition in experiment [11] was 21.4%.
With `N[C@H](C(=O)O)c1ccc(C(=O)O)c(C(=O)O)c1`, the inhibition was 13.8% in [1]; 54.5% in experiment [2]; -7.78% in experiment [14]; 45% in [4]; 11.6% in experiment [5]; -4.38% in experiment [6]. The inhibition in experiment [7] was 6.26%; in experiment [12], -8.66%; in experiment [8], -5.64%; in [9] it was -9.35%; in experiment [13] it was 4.51%; in experiment [10] it was 14.1%. In [11], the inhibition is 69.3%.
Take `COc1ccc(CNC(=O)c2cc(-c3cncc(Cl)c3)cnc2-c2ccccn2)nc1OC`: the inhibition was 17.5% in experiment [1]; 39% in experiment [2]; 10.6% in experiment [4]; -2.53% in experiment [5]; -7.15% in [6]; -2.32% in experiment [7]. Besides, the inhibition in [12] was 12.9%; in experiment [8], 30.3%; in experiment [9], 7.09%; in experiment [13], 14.4%; in experiment [10], 0.79%; in experiment [11], 23.7%.
